Data published in patent US11312712B2, “Azabenzimidazoles and their use as AMPA receptor modulators” (Janssen Pharmaceutica NV, priority 2015, dated 2022).

target: GluA1o-γ8 (GRIA1o-CACNG8 fusion construct) (Homo sapiens (Human), UniProt P42261+Q8WXS5); assay: Calcium flux assay (FLIPR), inhibition of TARP γ8 dependent AMPA receptor activity; assay type: cell-based; details: GluA1o-γ8 (GRIA1o-CACNG8 fusion) in HEK293 cells, calcium flux after 15 μM glutamate
Method in brief: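 Glutamate (15 μM) was added to a stable HEK293 line carrying the GluA1o–γ8 fusion, which had been preincubated with compound and calcium dye in HEPES buffer, pH 7.4. Normalized FLIPR fluorescence (no compound vs 10 μM CP465022) was fitted with four parameters; pIC50 is the midpoint's negative log.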

GluA1o-γ8 (GRIA1o-CACNG8 fusion construct), sequence (P42261 other isoform, or with tags, fused parts or gaps): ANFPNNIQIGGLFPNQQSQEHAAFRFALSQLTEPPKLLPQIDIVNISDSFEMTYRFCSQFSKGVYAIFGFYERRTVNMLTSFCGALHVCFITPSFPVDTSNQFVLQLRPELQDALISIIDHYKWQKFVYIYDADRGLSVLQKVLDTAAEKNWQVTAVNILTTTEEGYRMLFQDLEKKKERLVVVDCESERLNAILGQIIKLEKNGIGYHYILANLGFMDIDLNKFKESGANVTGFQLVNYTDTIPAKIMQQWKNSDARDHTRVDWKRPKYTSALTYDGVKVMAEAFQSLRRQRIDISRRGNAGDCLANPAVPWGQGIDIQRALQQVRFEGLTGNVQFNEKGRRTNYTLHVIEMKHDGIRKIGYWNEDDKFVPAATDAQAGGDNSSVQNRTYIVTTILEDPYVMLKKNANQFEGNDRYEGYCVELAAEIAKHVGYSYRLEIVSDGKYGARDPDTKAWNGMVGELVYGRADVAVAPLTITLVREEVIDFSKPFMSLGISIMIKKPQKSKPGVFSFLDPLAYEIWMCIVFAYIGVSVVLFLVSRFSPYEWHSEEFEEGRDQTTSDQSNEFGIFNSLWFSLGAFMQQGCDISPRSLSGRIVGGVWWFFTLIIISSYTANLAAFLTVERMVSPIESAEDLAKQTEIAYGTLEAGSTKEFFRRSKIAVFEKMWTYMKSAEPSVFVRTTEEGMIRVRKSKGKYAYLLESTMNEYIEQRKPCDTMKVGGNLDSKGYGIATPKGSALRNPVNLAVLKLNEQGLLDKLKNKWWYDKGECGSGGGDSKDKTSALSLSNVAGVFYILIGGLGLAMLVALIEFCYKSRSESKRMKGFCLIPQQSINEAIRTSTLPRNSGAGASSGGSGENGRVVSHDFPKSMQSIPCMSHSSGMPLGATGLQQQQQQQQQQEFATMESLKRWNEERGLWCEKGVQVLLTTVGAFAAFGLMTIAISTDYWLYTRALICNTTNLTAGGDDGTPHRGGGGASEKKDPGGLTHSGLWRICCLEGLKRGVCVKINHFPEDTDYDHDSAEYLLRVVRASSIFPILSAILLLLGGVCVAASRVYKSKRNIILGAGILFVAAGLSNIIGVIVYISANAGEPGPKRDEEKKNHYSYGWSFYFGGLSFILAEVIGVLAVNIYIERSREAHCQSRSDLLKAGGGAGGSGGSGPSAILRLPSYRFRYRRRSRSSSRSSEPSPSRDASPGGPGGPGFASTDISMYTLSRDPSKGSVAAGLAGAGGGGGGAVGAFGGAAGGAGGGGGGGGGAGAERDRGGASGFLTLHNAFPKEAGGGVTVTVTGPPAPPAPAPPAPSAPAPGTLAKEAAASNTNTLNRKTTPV

SMILES	IC50 [nM]
Nc1ccc2nc(-c3ccc(F)cc3)n(-c3ccc4[nH]c(=O)sc4c3)c2n1 [Example 82, 6-[5-Amino-2-(4-fluorophenyl)imidazo[4,5-b]pyridin-3-yl]-3H-1,3-benzothiazol-2-one]	63.1
CCC(CC)c1nc2ccc(C(F)(F)F)nc2n1-c1ccc2c(c1)CC(=O)N2 [Example 83, 5-[2-(1-Ethylpropyl)-5-(trifluoromethyl)imidazo[4,5-b]pyridin-3-yl]indolin-2-one]	63.1
Cc1ccc2nc(C(C)C)n(-c3ccc4c(c3)CC(=O)N4)c2n1 [Example 84, 5-(2-Isopropyl-5-methyl-imidazo[4,5-b]pyridin-3-yl)indolin-2-one]	63.1
O=C(Nc1ccccc1)c1nc2ccc(C(F)(F)F)nc2n1-c1ccc2[nH]ncc2c1 [Example 85, 3-(1H-Indazol-5-yl)-N-phenyl-5-(trifluoromethyl)imidazo[4,5-b]pyridine-2-carboxamide]	79.4
Fc1ccc(-c2nc3ccc(C4CC4)nc3n2-c2ccc3[nH]ncc3c2)cc1 [Example 86, 5-Cyclopropyl-2-(4-fluorophenyl)-3-(1H-indazol-5-yl)imidazo[4,5-b]pyridine]	0.794
Cc1ccc2nc(C3CC3)n(-c3ccc4c(c3)CC(=O)N4)c2n1 [Example 87, 5-(2-Cyclopropyl-5-methyl-imidazo[4,5-b]pyridin-3-yl)indolin-2-one]	79.4
O=C1Cc2cc(-n3c(C(F)(F)F)nc4ccc(C(F)(F)F)nc43)ccc2N1 [Example 88, 5-[2,5-Bis(trifluoromethyl)imidazo[4,5-b]pyridin-3-yl]indolin-2-one]	1.58
CC(F)(F)c1nc2ccc(C(F)(F)F)nc2n1-c1ccc2c(c1)CC(=O)N2 [Example 93, 5-[2-(1,1-Difluoroethyl)-5-(trifluoromethyl)imidazo[4,5-b]pyridin-3-yl]indolin-2-one]	7.94
O=C1Cc2cc(-n3c(C(F)F)nc4ccc(C(F)(F)F)nc43)ccc2N1 [Example 94, 5-[2-(Difluoromethyl)-5-(trifluoromethyl)imidazo[4,5-b]pyridin-3-yl]indolin-2-one]	50.1
O=C1Cc2cc(-n3c(C4CC4)nc4ccc(Cl)nc43)ccc2N1 [Example 95, 5-(5-Chloro-2-cyclopropyl-imidazo[4,5-b]pyridin-3-yl)indolin-2-one]	39.8
CC(C)(C)Cc1nc2ccc(C(F)(F)F)nc2n1-c1ccc2c(c1)CC(=O)N2 [Example 97, 5-[2-(2,2-Dimethylpropyl)-5-(trifluoromethyl)imidazo[4,5-b]pyridin-3-yl]indolin-2-one]	251
CCc1nc2ccc(C(F)(F)F)nc2n1-c1ccc2c(c1)CC(=O)N2 [Example 99, 5-[2-Ethyl-5-(trifluoromethyl)imidazo[4,5-b]pyridin-3-yl]indolin-2-one]	12.6
O=c1[nH]c2ccc(-n3c(C4CC4)nc4ccc(C(F)(F)F)nc43)cc2[nH]1 [Example 106, 5-[2-Cyclopropyl-5-(trifluoromethyl)imidazo[4,5-b]pyridin-3-yl]-1,3-dihydrobenzimidazol-2-one]	2.51
O=c1[nH]c2ccc(-n3c(C4CC4)nc4ccc(C(F)(F)F)nc43)cc2o1 [Example 107, 6-[2-Cyclopropyl-5-(trifluoromethyl)imidazo[4,5-b]pyridin-3-yl]-3H-1,3-benzoxazol-2-one]	15.8
Fc1ccc(-c2nc3ccc(C(F)(F)F)nc3n2-c2ccc3[nH]ncc3c2)cc1 [Example 110, 2-(4-Fluorophenyl)-3-(1H-indazol-5-yl)-5-(trifluoromethyl)imidazo[4,5-b]pyridine]	0.316
O=c1[nH]c2ccc(-n3c(-c4ccccc4)nc4ccc(O)nc43)cc2s1 [Example 111, 6-(5-Hydroxy-2-phenyl-imidazo[4,5-b]pyridin-3-yl)-3H-1,3-benzothiazol-2-one]	15.8
Fc1ccc(-c2nc3cccnc3n2-c2cnc3[nH]ncc3c2)cc1 [Example 112, 2-(4-Fluorophenyl)-3-(1H-pyrazolo[3,4-b]pyridin-5-yl)imidazo[4,5-b]pyridine]	398
CC(C)(C)c1ccc2nc(-c3ccc(F)cc3)n(-c3ccc4[nH]ncc4c3)c2n1 [Example 118, 5-tert-Butyl-2-(4-fluorophenyl)-3-(1H-indazol-5-yl)imidazo[4,5-b]pyridine]	0.158
CC(C)c1ccc2nc(C3CCC3)n(-c3ccc4[nH]ncc4c3)c2n1 [Example 119, 2-Cyclobutyl-3-(1H-indazol-5-yl)-5-isopropyl-imidazo[4,5-b]pyridine]	0.0316
CC(C)c1ccc2nc(-c3ccc(F)cc3)n(-c3ccc4[nH]ncc4c3)c2n1 [Example 120, 2-(4-Fluorophenyl)-3-(1H-indazol-5-yl)-5-isopropyl-imidazo[4,5-b]pyridine]	0.0501
Cc1cc(-c2nc3ccc(C(F)(F)F)nc3n2-c2ccc3[nH]ncc3c2)ccc1F [Example 121, 2-(4-Fluoro-3-methyl-phenyl)-3-(1H-indazol-5-yl)-5-(trifluoromethyl)imidazo[4,5-b]pyridine]	0.501
Cc1cccc(-c2nc3ccc(C(F)(F)F)nc3n2-c2ccc3[nH]ncc3c2)c1 [Example 122, 3-(1H-Indazol-5-yl)-2-(m-tolyl)-5-(trifluoromethyl)imidazo[4,5-b]pyridine]	0.316
Cc1ccc(-c2nc3ccc(C(F)(F)F)nc3n2-c2ccc3[nH]ncc3c2)cc1 [Example 123, 3-(1H-Indazol-5-yl)-2-(p-tolyl)-5-(trifluoromethyl)imidazo[4,5-b]pyridine]	3.98
FC(F)(F)c1ccc2nc(-c3ccncc3)n(-c3ccc4[nH]ncc4c3)c2n1 [Example 124, 3-(1H-Indazol-5-yl)-2-(4-pyridyl)-5-(trifluoromethyl)imidazo[4,5-b]pyridine]	12.6
FC(F)(F)c1nc2ccc(C3CC3)nc2n1-c1ccc2[nH]ncc2c1 [Example 125, 5-Cyclopropyl-3-(1H-indazol-5-yl)-2-(trifluoromethyl)imidazo[4,5-b]pyridine]	0.794

The next lines start with the values.

IC50 [nM]	SMILES
1.26	FC(F)(F)c1ccc2nc(C(F)(F)F)n(-c3ccc4[nH]ncc4c3)c2n1 [Example 89, 3-(1H-Indazol-5-yl)-2,5-bis(trifluoromethyl)imidazo[4,5-b]pyridine]
3.16	FC(F)c1nc2ccc(C(F)(F)F)nc2n1-c1ccc2[nH]ncc2c1 [Example 90, 2-(Difluoromethyl)-3-(1H-indazol-5-yl)-5-(trifluoromethyl)imidazo[4,5-b]pyridine]
3.98	FC(F)(F)c1ccc2nc(-c3cccs3)n(-c3ccc4[nH]ncc4c3)c2n1 [Example 91, 3-(1H-Indazol-5-yl)-2-(2-thienyl)-5-(trifluoromethyl)imidazo[4,5-b]pyridine]
5.01	FC(F)(F)c1ccc2nc(-c3ccco3)n(-c3ccc4[nH]ncc4c3)c2n1 [Example 92, 2-(2-Furyl)-3-(1H-indazol-5-yl)-5-(trifluoromethyl)imidazo[4,5-b]pyridine]
63.1	Cc1nc2ccc(C(F)(F)F)nc2n1-c1ccc2[nH]ncc2c1 [Example 98, 3-(1H-Indazol-5-yl)-2-methyl-5-(trifluoromethyl)imidazo[4,5-b]pyridine]
25.1	CC(C)Cc1nc2ccc(C(F)(F)F)nc2n1-c1ccc2[nH]ncc2c1 [Example 101, 3-(1H-Indazol-5-yl)-2-isobutyl-5-(trifluoromethyl)imidazo[4,5-b]pyridine]
1.58	FC(F)(F)c1ccc2nc(C3CCC3)n(-c3ccc4[nH]ncc4c3)c2n1 [Example 103, 2-Cyclobutyl-3-(1H-indazol-5-yl)-5-(trifluoromethyl)imidazo[4,5-b]pyridine]
5.01	FC(F)(F)c1ccc2nc(C3CCCC3)n(-c3ccc4[nH]ncc4c3)c2n1 [Example 104, 2-Cyclopentyl-3-(1H-indazol-5-yl)-5-(trifluoromethyl)imidazo[4,5-b]pyridine]
7.94	CCc1nc2ccc(C(F)(F)F)nc2n1-c1ccc2[nH]ncc2c1 [Example 105, 2-Ethyl-3-(1H-indazol-5-yl)-5-(trifluoromethyl)imidazo[4,5-b]pyridine]
20	CC(C)(C)c1nc2ccc(C(F)(F)F)nc2n1-c1ccc2[nH]ncc2c1 [Example 108, 2-tert-Butyl-3-(1H-indazol-5-yl)-5-(trifluoromethyl)imidazo[4,5-b]pyridine]
0.251	CC(C)c1nc2ccc(C(F)(F)F)nc2n1-c1ccc2[nH]ncc2c1 [Example 109, 3-(1H-Indazol-5-yl)-2-isopropyl-5-(trifluoromethyl)imidazo[4,5-b]pyridine]
251	FC(F)(F)Cc1nc2ccc(C(F)(F)F)nc2n1-c1ccc2[nH]ncc2c1 [Example 113, 3-(1H-Indazol-5-yl)-2-(2,2,2-trifluoroethyl)-5-(trifluoromethyl)imidazo[4,5-b]pyridine]
12.6	CCOc1nc2ccc(C(F)(F)F)nc2n1-c1ccc2[nH]ncc2c1 [Example 114, 2-Ethoxy-3-(1H-indazol-5-yl)-5-(trifluoromethyl)imidazo[4,5-b]pyridine]
200	OC1(c2nc3ccc(C(F)(F)F)nc3n2-c2ccc3[nH]ncc3c2)CC1 [Example 115, 1-[3-(1H-Indazol-5-yl)-5-(trifluoromethyl)imidazo[4,5-b]pyridin-2-yl]cyclopropanol]
2	CC(F)(F)c1nc2ccc(C(F)(F)F)nc2n1-c1ccc2[nH]ncc2c1 [Example 116, 2-(1,1-Difluoroethyl)-3-(1H-indazol-5-yl)-5-(trifluoromethyl)imidazo[4,5-b]pyridine]
794	CN(C)C(=O)c1nc2ccc(C(F)(F)F)nc2n1-c1ccc2[nH]ncc2c1 [Example 126, 3-(1H-Indazol-5-yl)-N,N-dimethyl-5-(trifluoromethyl)imidazo[4,5-b]pyridine-2-carboxamide]
794	CNC(=O)c1nc2ccc(C(F)(F)F)nc2n1-c1ccc2[nH]ncc2c1 [Example 127, 3-(1H-Indazol-5-yl)-N-methyl-5-(trifluoromethyl)imidazo[4,5-b]pyridine-2-carboxamide]
